Experimental data: US9629843B2, “MTOR modulators and uses thereof” (The Regents of the University of California, priority 2008, dated 2017)
“Also recorded” adds a separate entry of the source.

What was measured:
[1] = test system: Akt phosphorylation (S473, T308) in L6 myotubes; test: Akt phosphorylation in insulin stimulated L6 myotubes (immunoblot); type: cell-based; conditions: 100 nM insulin, FIG. 3
Description: L6 myoblasts were grown typically grown in DMEM supplemented with about 10% FBS, glutamine and penicillin/streptomycin. Confluent L6 myoblasts were differentiated into mytubes by culturing them for approximately 5 days in media containing about 2% FBS. L6 myotubes were maintained in media containing approximately 2% FBS until use.
In order to compare the effect of TORKinibs and PIK-90 on Akt phosphorylation, L6 myotubes were serum starved overnight and incubated with inhibitors or about 0.1% DMSO for approximately 30 minutes prior to stimulation with insulin (e.g. 100 nM) for about 10 minutes. Cells were lysed by scraping into ice cold lysis buffer (generally: 300 mM NaCl, 50 mM Tris pH 7.5, 5 mM EDTA, 1% TRITON™ X-100, 0.02% NaN3, 20 nM microcystin, Sigma phosphatase inhibitor cocktails 1 and 2, Roche protease inhibitor cocktail and 2 mM PMSF). After contacting cells with lysis buffer, the solution was briefly sonicated. Lysates were cleared by centrifugation, resolved by SDS-PAGE, transferred to nitrocellulose and immunoblotted using antibodies to phospho-Akt S473, phospho-Akt T308, Akt, and β-actin (Cell Signaling Technologies).

Tolerability in mice = type: in vivo; conditions: 10, 30 or 100 mg/kg, four times or twice daily, p.o.
[2] = Metabolic stability in microsome and cellular assays; type: in vitro ADME
[3] = test system: Akt substrates (GSK3, TSC2, FoxO1/O3a) in L6 myotubes; test: Phosphorylation of Akt substrates in insulin stimulated L6 myotubes; type: cell-based; conditions: FIG. 6
[4] = test system: cap-dependent translation; test: Cap-dependent translation, m7GTP affinity, p190 cells; type: cell-based; conditions: IM at 5 μM; FIG. 38D
[5] = test system: Akt-S473 and S6 phosphorylation in T cells; test: Phosflow of anti-CD3 stimulated murine splenocytes; type: cell-based
[6] = test system: p70S6K, 4EBP1 phosphorylation in MEFs; test: Phosphorylation of 70S6K and 4EBP1 in mouse embryonic fibroblasts; type: cell-based; conditions: wild-type and SIN1−/− MEFs; FIG. 11
Description: Wild-type and SIN1−/− primary mouse embryonic fibroblasts (MEFs) were grown in DMEM supplemented with about 10% FBS, glutamine and penicillin/streptomycin. MEFs were treated with TORKinib at approximately 2.5, 0.63, and 0.16 uM; rapamycin at about 15 nM; or PIK-90 at about 625 nM for approximately 30 minutes prior to insulin stimulation (e.g. 100 nM) for about 10 minutes. Cells were lysed by scraping into ice cold lysis buffer (generally: 300 mM NaCl, 50 mM Tris pH 7.5, 5 mM EDTA, 1% TRITON™ X-100, 0.02% NaN3, 20 nM microcystin, Sigma phosphatase inhibitor cocktails 1 and 2, Roche protease inhibitor cocktail and 2 mM PMSF). After contacting cells with lysis buffer, the solution was briefly sonicated. Lysates were cleared by centrifugation, resolved by SDS-PAGE, transferred to nitrocellulose and immunoblotted using antibodies to phospho-p70S6K T389, phospho-4EBP1 T37/46, phospho-4EBP1 S65, and β-actin (Cell Signaling Technologies).

[7] = test system: mTORC2/AKT and mTORC1 signaling; test: mTORC2/AKT and mTORC1 signaling in p190 cells (western blot); type: cell-based; conditions: FIGS. 38A-38B
Description: Western blots of p190 cells treated for 1.5 hr (a) or 3 hr (b) with indicated inhibitors are depicted in FIG. 38A and FIG. 38B. […] Clinically achievable concentrations of IM (1.0 μM) and DA (100 nM) were used for the combination treatments. See also FIGS. 40A-40B. Activation of PI3K was quantified in cells by signal pixel intensity and localized area of PIP3 accumulation by confocal microscopy, as depicted in FIG. 38C. […] A minimum of 250 cells was quantified from 2 separate images. […] Representative images depict PIP3 accumulation, nuclear content (DAPI stain) merged onto DIC images (13.5 μm scale bar). […] Autophagy (LC3 puncta accumulation), loss of proliferation (EdU accumulation), and distinct localization patterns of Foxo1 were assessed by confocal microscopy and representative cells were magnified for clarity. Cytoplasmic localization of Foxo1 corresponds to AKT activation, whereas nuclear accumulation signifies AKT inhibition.

p70S6K phosphorylation = p70S6K phosphorylation in mpkCCD cells; type: cell-based
Tolerability in rats = type: in vivo; conditions: 10, 30 or 100 mg/kg, four times or twice daily, p.o.
[8] = test system: ENaC-dependent Na+ current; test: ENaC-dependent Na+ transport in mpkCCD cells
[9] = test system: Akt phosphorylation (S473, T308) in MEFs; test: Akt phosphorylation in wild-type and SIN1−/− mouse embryonic fibroblasts (immunoblot); type: cell-based
Description: Wild-type and SIN1−/− primary mouse embryonic fibroblasts (MEFs) were grown in DMEM supplemented with about 10% FBS, glutamine and penicillin/streptomycin. MEFs were treated with TORKinib at about 2.5, 0.63, and 0.16 uM; rapamycin at approximately 15 nM; or PIK-90 at 625 nM for 30 minutes prior to insulin stimulation (e.g. 100 nM) for 10 minutes. Cells were lysed by scraping into ice cold lysis buffer (typically 300 mM NaCl, 50 mM Tris pH 7.5, 5 mM EDTA, 1% TRITON™ X-100, 0.02% NaN3, 20 nM microcystin, Sigma phosphatase inhibitor cocktails 1 and 2, Roche protease inhibitor cocktail and 2 mM PMSF). After contacting cells with lysis buffer, the solution was briefly sonicated. Lysates were cleared by centrifugation, resolved by SDS-PAGE, transferred to nitrocellulose and immunoblotted using antibodies to phospho-Akt S473, phospho-Akt T308, Akt, and β-actin (Cell Signaling Technologies).

SGK1 pS422 = test: HM (pS422) phosphorylation of flag-tagged SGK1 in HEK293 cells; type: cell-based, Human; conditions: insulin, FIG. 28C
[10] = Pharmacokinetics of PP242; conditions: in vivo
SGK1 phosphorylation = SGK1 phosphorylation in mpkCCD cells (mobility shift immunoblot); type: cell-based; conditions: at a concentration of 0.3 μM
[11] = test system: Akt, S6, 4EBP1 phosphorylation in tissues; test: In vivo effect on insulin signaling in fat, skeletal muscle and liver of mice; design: species or system C57BL/6 mice
[12] = test system: ENaC-dependent Na+ current
[13] = test system: myristolated-Akt transgenic thymocytes tumors; test: Akt murine allograft tumor model; type: in vivo, NOD/SCID mice
[14] = test system: PI3K signaling (PIP3 accumulation); test: PIP3 accumulation in p190 cells by confocal microscopy; type: cell-based; conditions: 20 and 200 nM, 4 hr; FIG. 38C
4EBP1 binding to eIF-4E = test: m7GTP cap pull-down assay in L6 myotubes; type: cell-based; conditions: insulin stimulated L6 myotubes; FIG. 10
[15] = Genetic toxicology (mini-Ames test)
[16] = test system: S6K, S6, 4EBP1 phosphorylation in L6 myotubes; test: Phosphorylation of S6K, S6 and 4EBP1 in insulin stimulated L6 myotubes; type: cell-based

## CC(C)n1nc(-c2cc3cc(O)ccc3[nH]2)c2c(N)ncnc21 [PP242]
[1]
  insulin stimulated phosphorylation of Akt at S473 and T308: inhibit insulin stimulated phosphorylation of Akt at S473
Tolerability in mice
  tolerability: tolerated
[2]
  metabolic stability: metabolically stable
[3]
  phosphorylation of Akt and its substrates: partially inhibited
[4]
  cap-dependent translation: inhibit cap-dependent translation
[5]
  anti-CD3 mediated phosphorylation of Akt-S473: inhibits
  anti-CD3 mediated phosphorylation of S6: inhibits
[6]
  phosphorylation of p70S6K and 4EBP1: more complete inhibitor of 4EBP1 phosphorylation under the conditions tested than rapamycin
[7]
  mTORC2/AKT and mTORC1 signaling in B-ALL: completely inhibits mTORC2/AKT and mTORC1 signaling
p70S6K phosphorylation
  p70S6K phosphorylation: eliminated the band detected by anti-phospho p70S6K antibody
Tolerability in rats
  tolerability: tolerated
[8]; FIG. 29B
  T1/2 of effect on Na+ current: approximately 15 minutes
[8]; at a concentration of 0.3 μM
  amiloride-sensitive Na+ current: completely abolished
[8]; mpkCCD cells
  aldosterone-induced Na+ current: completely blocked aldosterone-induced current
[9]; SIN1−/− MEFs
  phosphorylation of Akt T308: has no effect
[9]; wild-type MEFs
  phosphorylation of Akt at S473 and T308: inhibits the phosphorylation of Akt at both S473 and T308
SGK1 pS422
  pS422-SGK1 band: abrogated
[10]
  clearance: moderate
  volume of distribution: good
[10]; po
  oral bioavailability (F %): 30-70%
SGK1 phosphorylation
  phosphorylation of SGK1: completely abolished
[11]; all tissues examined
  S6 phosphorylation: equally inhibited
  phosphorylation of 4EBP1 on T37/46 and S65: effective at blocking
[11]; fat and liver, i.p., insulin stimulated mice
  phosphorylation of Akt at S473 and T308: completely inhibit
[11]; skeletal muscle
  phosphorylation of Akt: only partially able to inhibit
[12]
  toxic effect of prolonged treatment: diminishes electrical resistance and causes morphological changes
[13]; PP242 100 mg/kg, rapamycin 5 mg/kg, gavage daily, 20 days
  tumor growth: no tumor growth
[13]; after 20 days of treatment
  body weight: maintained body weight
[14]
  PI3K signaling (PIP3 accumulation): had no significant effect
4EBP1 binding to eIF-4E
  retention of 4EBP1 on eIF-4E (m7GTP pull-down): caused a greater retention of 4EBP1
[15]
  genetic toxicology (mini-Ames test): clean profile
[16]
  phosphorylation of 4EBP1 at S65: fully inhibits
  phosphorylation of 4EBP1 at T70: neither rapamycin nor TORKinib affect
[16]; listed as TORKinib
  phosphorylation of 4EBP1 at T37/46: fully inhibits; also recorded: able to inhibit
